Experiment [1] relates to Vibrio coli. The experiment is described as follows: Bactericide test, agar growth inhibition. The format is cell-based. To be noted: vs chlortetracycline. From the text: (§1) Test formulations were examined for bactericidal and/or bacteriostatic activity against the test organisms shown in Tables A and B. These organisms were chosen as being representative of commercially important pathogens affecting animal agriculture. The antibiotic chlortetracycline was chosen as a positive control, since it has a broad spectrum of activity against a large number of organisms, and its activity can be used for comparative purposes.
(§2) Basic test formulations of the product of Examples I, II, III, and of chlortetracycline were prepared by dissolving 16 mg (0.016 g) in 2.0 ml of stock emulsifier solution (0.25% Triton X-155 in acetone by volume) and making each solution up to 50 ml with deionized water. The concentration of the test compound in the basic formuation was 320 ppm. Lower concentrations of the test compound were obtained by diluting the basic formulation with a 4% solution of the stock emulsifier in deionized water so that each dilution in the series differed only in test compound content.
(§3) Nutrient-tryptic soy agar (NTA) consisting of 2.0% Difco Bactoagar 0.8% nutrient broth (Difco), and 0.5% tryptic soy broth (Difco) was prepared and sterilized by autoclaving. A 2 ml aliquot of each test formulation was added to 8 ml of molten NTA. This mixture was then plated in a sterile polystyrene petri dish (100 × 15 mm). After the agar was set, suspensions of each of the test organisms were simultaneously streaked into the surface of the agar. The inoculated plates were incubated for 48 hr at 28°C. The inhibition of growth of each organism was rated by visual comparison with the organism developing on non-treated agar. Growth inhibition reported as per cent control was rated in three categories as follows: 0% control, growth equivalent to that on non-treated agar; 50% control, sparse development and separated colonies; 100% control, no visible growth or development of colonies.

In experiment [2] the test system is Erysipelothrix rhusiopathiae. The experiment is described as follows: Bactericide test, agar growth inhibition. The following applies: vs chlortetracycline. Format: cell-based.
Source text: as §1, §2, §3

The test system of experiment [3] is Bordetella bronchiseptica. Nature of the experiment: Bactericide test, agar growth inhibition. Format: cell-based. To be noted: vs chlortetracycline.
Source text: as §1, §2, §3

Experiment [4] deals with Streptococcus agalactiae. The experiment is described as follows: Bactericide test, agar growth inhibition. The format is cell-based. The following applies: vs chlortetracycline.
Source text: as §1, §2, §3

The subject of experiment [5] is Streptococcus group E. Nature of the experiment: Bactericide test, agar growth inhibition. Format: cell-based. To be noted: vs chlortetracycline.
Source text: as §1, §2, §3

Experiment [6] concerns Streptococcus faecalis. Nature of the experiment: Bactericide test, agar growth inhibition. Format: cell-based. To be noted: vs chlortetracycline.
Source text: as §1, §2
as §3, with “colonies. […]” for “colonies.”

Experiment [7] is described as follows: Chick growth promotion, Example XII repeat test (Table VII). Format: in vivo, broiler cross chicks. To be noted: second set of tests, 25 g/T. The source says:
(§4) The growth promotion tests described in Example X were repeated with the additional testing the products of Examples II and III.

Experiment [8] can be described thus: Chick growth promotion and feed efficiency at low levels, Example VIII (Table II). Format: in vivo, broiler cross chicks. From the text:
Day old broiler cross chicks were weight equalized into groups of 8 chicks each and were placed in battery brooders. The 32 chick treatment groups (4 replicates) were fed one of the five rations described below for a 4 week period. Weekly measurements of body weights and feed consumption were made by replicate, and these measurements used to calculate weight gain and feed efficiency.
The basal ration was the basal ration used in Example VII above. The remaining five rations were obtained by mixing the indicated quantities by bacitracin (4 g/T), chlortetracycline (10 g/T), product of Example I (10 g/T), and product of Example III of U.S. Pat. No. 3,542,784 -- Burch (10 g/T) as growth promotants with the basal ration.

The nature of experiment [9]: Chick growth promotion titration dosage, Example IX (Table III). Format: in vivo, broiler cross chicks. The source says: The concentrations used in this test were 6.25, 12.5, 25, 50, 100, 200 and 400 g of the Product of Example I per ton of the Basal Ration described in Example VII above. The same number and size chick treatment groups were used in this test as in Example VIII above.

A short description of experiment [10]: Chick growth promotion, Example XII first test (Table VI). Format: in vivo, broiler cross chicks. The following applies: first set of tests, 25 g/T.
Source text: as §4

Experiment [11] is described as follows: Swine growth rate and feed efficiency, Example XIII (Table VIII). The format is in vivo, weanling pigs. To be noted: 25 g/T. From the text:
Thirty-six weanling pigs weighing approximately 30 pounds each in good physical condition and originating from a common source were used in these tests. The pigs were allocated into sex and weight equalized pens of six pigs each. A 1 week period was allowed for acclimatization before testing. Three replicates of six pigs were fed the basal ration described below, and three replicates were fed the same basal ration supplemented with 25 g/T of the product of Example I.
The basal ration was a 17% commercial corn-soya pelletized formulation which was free of antibiotic and drug components. Composition of the basal ration formulation was: […]
The rations were offered ad libitum from 6 bushel self-feeders with a continuous supply of fresh water. The same ration formulations were used throughout the 6 week feeding period. Individual pig weighing were made after 0, 2, 4 and 6 (termination) week periods. Feed consumption records were kept on a pen basis, with feed efficiency conversion being compiled at the end of the 2nd, 4th and 6th (termination) week of feeding. Complete morbidity and mortality records were kept.

Experiment [12] in a line: Chick growth promotion comparison, Example X (Table IV). The format is in vivo, broiler cross chicks. To be noted: 25 g/T. From the text:
This example compares growth promotion activity of the product of Example I with other growth promotants at a concentration of 25 g/T in the Basal Ration described in Example VII. The other growth promotants include the product described in Example I of U.S. Pat. No. 3,542,784 -- Burch and quinoxaline-1,4-dioxide. Day old broiler cross chicks were weight equalized into groups of 8 chicks each, and four replicates of 8 chicks each were fed the experimental rations over a 4 week period.

Experiment [13] is described as follows: Chick growth promotion comparison, Example XI (Table V). The format is in vivo, broiler cross chicks. The following applies: 25 g/T, 4 weeks. The source says: The growth promotion tests described in Example X were repeated with the exception that five replicates of 8 chicks each were fed the formulations described in Table V for 4 weeks.

Each structure is given as a SMILES string. Positions of bridges follow the written chain, without caps; N, C: chain ends. Non-standard residues stand in square brackets, D forms with d. Residues, ends and D or L forms follow the SMILES beside them. *: point of attachment. Ileψ(thiazoline)Cys = CC[C@H](C)[C@H](N)C1=N[C@H](C(=O)*)CS1; dOrn = NCCC[C@@H](N)C(=O)O

As to `O=[N+]([O-])c1ccc(C=Cc2nc(Nc3ccccc3)c3ccccc3n2)o1` [Example IV, 2-[2-(5-nitro-2-furyl)vinyl]-4-anilinoquinazoline], the “effectiveness compared with chlortetracycline” value in experiment [1], in [2], in experiment [3], in experiment [4], in [5] and in experiment [6] was “considerably more effective” each time.
For the compound `O=[N+]([O-])c1ccc(C=Cc2nc(Nc3ccc(O)cc3)c3ccccc3n2)o1` [Example I, 2-[2-(5-nitro-2-furyl)vinyl]-4-(p-hydroxyanilino)quinazoline], the “effect on growth rate and feed efficiency (in words)” value (“effect … (in words)” for short) in [7] and in [10] was “moderate improvements in production parameters in both tests” in each case. Also, the “effectiveness compared with chlortetracycline” value in experiment [1], in experiment [2], in experiment [3], in experiment [4], in [5] and in experiment [6] was “considerably more effective” each time. For the same compound, the “growth promotion (in words)” value in experiment [8] (low levels in feed) is on record as “greater growth promotion than any of the other growth promotants”. Also, in [9] (100 g/T), the “weight gain (in words)” value is on record as “unexplained absence of weight gain improvement”. Moreover, the “activity (in words)” value in experiment [9] (400 g/T) is “sharp downturn”. The “growth and feed efficiency (in words)” value in [11] was “very substantial growth improvement and enhanced feed efficiency”.
Consider `[O-][n+]1cc[n+]([O-])c2ccccc21` [Quinoxaline-1,4-dioxide, quinoxaline-1,4-dioxide], for which the “response in growth rate and feed efficiency (in words)” value in experiment [12] was “did not have any apparent effect”.
On to `O=[N+]([O-])c1ccc(C=Cc2nc(Nc3cccc(O)c3)c3ccccc3n2)o1` [Example II, 2-[2-(5-nitro-2-furyl)vinyl]-4-(m-hydroxyanilino)quinazoline], for which the “effectiveness compared with chlortetracycline” value in experiment [1], in experiment [2], in experiment [3], in experiment [4], in experiment [5] and in experiment [6] was “considerably more effective” in each case. Further, the “effect … (in words)” value in [10] is on record as “moderate improvements”.
On to `CC[C@H](C)[C@H](N)C1=N[C@H](C(=O)N[C@@H](CC(C)C)C(=O)N[C@H](CCC(=O)O)C(=O)N[C@H](C(=O)N[C@H]2CCCCNC(=O)[C@H](CC(N)=O)NC(=O)[C@@H](CC(=O)O)NC(=O)[C@H](Cc3cnc[nH]3)NC(=O)[C@@H](Cc3ccccc3)NC(=O)[C@H]([C@@H](C)CC)NC(=O)[C@@H](CCCN)NC2=O)[C@@H](C)CC)CS1` [Bacitracin] ({Ileψ(thiazoline)Cys}-L[dE]IK[dOrn]I[dF]H[dD]N; lactam 4-C), for which, in experiment [13], the “Improved Response Over Basal Ration, Feed Efficiency” value is “+3.1%” and the “Improved Response Over Basal Ration, Gain” value is on record as “+1.2%”. In experiment [8] (4 g/T, 4 weeks), the “Improved Response Over Basal Ration, Feed Efficiency” value is given as “+1.2%” and the “Improved Response Over Basal Ration, Gain” value was -2.3%.
Turning to `O=[N+]([O-])c1ccc(-c2nc(Nc3ccc(O)cc3)c3ccccc3n2)o1` [Example III of U.S. 3,542,784 - Burch, 2-(5-nitro-2-furyl)-4-(p-hydroxyanilino)quinazoline, reference compound], the “effect … (in words)” value in experiment [7] and in experiment [10] was “essentially no effect on growth rate or feed efficiency in either test” each time.

For the origin of these results see patent US3974277A, “2-[2-(5-Nitro-2-furyl)vinyl]-4-(anilino)quinazolines as growth promotants and feed efficiency enhancing agents” (Diamond Shamrock Corporation, priority 1975, dated 1976).
